# Data as given in patent EP1115693B9, “SUBSTITUTED POLYCYCLIC ARYL AND HETEROARYL $i([sequence])-HETEROALKYLAMINES USEFUL FOR INHIBITING CHOLESTERYL ESTER [sequence] PROTEIN ACTIVITY” (Monsanto Company, priority 1998, dated 2000).
# Target: T1, CETP (Homo sapiens, UniProt P11597)
# T1 sequence (P11597 18-493): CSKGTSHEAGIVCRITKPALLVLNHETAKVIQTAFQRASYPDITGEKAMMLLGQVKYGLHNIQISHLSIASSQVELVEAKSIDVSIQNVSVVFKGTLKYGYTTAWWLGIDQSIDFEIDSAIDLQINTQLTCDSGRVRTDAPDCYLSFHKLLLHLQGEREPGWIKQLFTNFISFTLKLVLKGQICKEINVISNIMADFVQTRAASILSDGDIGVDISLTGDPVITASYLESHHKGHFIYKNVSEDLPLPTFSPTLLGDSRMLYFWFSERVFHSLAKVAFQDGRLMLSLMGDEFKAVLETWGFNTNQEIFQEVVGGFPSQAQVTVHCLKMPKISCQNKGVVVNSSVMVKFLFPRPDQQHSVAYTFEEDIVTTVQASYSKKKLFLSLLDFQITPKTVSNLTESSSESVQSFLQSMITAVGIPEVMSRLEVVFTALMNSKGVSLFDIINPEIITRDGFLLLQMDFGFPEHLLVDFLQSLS
# Assay: Assay of CETP inhibition using purified components (reconstituted buffer assay): transfer of [3H]CE from HDL to LDL
# Assay type: biochemical
# Parameters: made in house; host or cells: CHO cells (serum-free conditioned medium)
# Conditions: 2 hours at 37°C
# Protocol: ASSAY OF CETP INHIBITION USING PURIFIED COMPONENTS (RECONSTITUTED BUFFER ASSAY)
# The ability of compounds to inhibit CETP activity was assessed using an in vitro assay that measured the rate of transfer of radiolabeled cholesteryl ester ([^3H]CE) from HDL donor particles to LDL acceptor particles. Details of the assay are provided by Glenn, K. C. et al. (Glenn and Melton, "Quantification of Cholesteryl Ester Transfer Protein (CETP): A) CETP Activity and B) Immunochemical Assay of CETP Protein," Meth. Enzymol., 263, 339-351 (1996)). Human recombinant CETP can be obtained from the serum-free conditioned medium of CHO cells transfected with a cDNA for CETP and purified as described by Wang, S. et al. (J. Biol. Chem. 267, 17487-17490 (1992)). To measure CETP activity, [^3H]CE-labeled-HDL, LDL, CETP and assay buffer (50 mM tris(hydroxymethyl)aminomethane, pH 7.4; 150 mM sodium chloride; 2 mM ethylenediamine-tetraacetic acid (EDTA); 1% bovine serum albumin) were incubated in a final volume of 200 µL, for 2 hours at 37°C in 96 well plates. […] The inhibitors were then diluted 1:1 with CETP in assay buffer, and then 25 µL of that solution was mixed with 175 µL of lipoprotein pool for assay. Following incubation, LDL was differentially precipitated by the addition of 50 µL of 1% (w/v) dextran sulfate/0.5 M magnesium chloride, mixed by vortex, and incubated at room temperature for 10 minutes. A potion of the solution (200 µL) was transferred to a filter plate (Millipore). After filtration, the radioactivity present in the precipitated LDL was measured by liquid scintillation counting.
# This value was defined as the IC50.
row,IC50 [µM],SMILES
1,> 100,Fc1ccc(Oc2cccc(NCc3cccc(OC(F)(F)C(F)F)c3)c2)cc1 [634C]
2,> 50,"O=C(O)c1ccc(COc2cccc(N(Cc3cccc(OC(F)(F)C(F)F)c3)CC(O)C(F)(F)F)c2)cc1 (centres unmarked) [EX-435B, 4-[[3-[[[3-(1,1,2,2-tetrafluoroethoxy)phenyl]methyl](3,3,3-trifluoro-2-hydroxypropyl)amino]phenoxy]methyl]benzoic acid]"
3,60,COc1cccc(N(Cc2cccc(C)c2)CC(O)C(F)(F)F)c1 (centres unmarked) [Example 3]
4,100,"OCc1cccc(CN(CC(O)C(F)(F)F)c2cccc(Oc3ccccc3)c2)c1 (centres unmarked) [Example 618, 3-[[(3-phenoxyphenyl)(3,3,3-trifluoro-2-hydroxypropyl)amino]methyl]benzenemethanol]"
5,50,"O=C(OC(CN(C(=O)c1cccc(C(F)(F)F)c1)c1cccc(F)c1)C(F)(F)F)c1cccc(C(F)(F)F)c1 (centres unmarked) [Example 662, 2,2,2-trifluoro-1-[[(3-fluorophenyl)[3-(trifluoromethyl)benzoyl]amino]-methyl]ethyl 3-trifluoromethylbenzoate]"
6,100,"O=C(c1cccc(C(F)(F)F)c1)N(CC(O)C(F)(F)F)c1cccc(F)c1 (centres unmarked) [Example 663, N-(3-fluorophenyl)-N-(3,3,3-trifluoro-2-hydroxypropyl)-3-(trifluoromethyl)benzamide]"
7,100,OC(CN(Cc1ccccc1)c1ccccc1)C(F)(F)F (centres unmarked) [compound 2]
8,> 100,OC(CN(Cc1ccccc1)c1cccc(F)c1)C(F)(F)F (centres unmarked) [compound 10]
9,60,OC(CN(Cc1cccc(F)c1)c1cccc(F)c1)C(F)(F)F (centres unmarked) [compound 18]
10,> 100,Cc1ccc(N(Cc2cccc(C(F)(F)F)c2)CC(O)C(F)(F)F)cc1 (centres unmarked) [compound 20]
11,> 100,Cc1ccccc1N(Cc1cccc(C(F)(F)F)c1)CC(O)C(F)(F)F (centres unmarked) [compound 21]
12,50,OC(CN(Cc1ccc(C(F)(F)F)cc1)c1ccc(F)c(F)c1)C(F)(F)F (centres unmarked) [compound 22]
13,> 100,Cc1ccc(N(Cc2cccc(F)c2)CC(O)C(F)(F)F)cc1 (centres unmarked) [compound 32]
14,50,Cc1ccc(CN(CC(O)C(F)(F)F)c2cccc(Cl)c2)cc1 (centres unmarked) [compound 34]
15,100,Cc1ccc(CN(CC(O)C(F)(F)F)c2cccc(C(F)(F)F)c2)cc1 (centres unmarked) [compound 45]
16,> 100,Cc1cccc(CN(CC(O)C(F)(F)F)c2cccc(F)c2)c1 (centres unmarked) [compound 49]
17,50,OC(CN(Cc1cccc(Oc2ccc(Cl)cc2)c1)c1cccc(OC(F)(F)F)c1)C(F)(F)F (centres unmarked) [compound 93]
18,50,OC(CN(Cc1cccc(Oc2cc(Cl)cc(Cl)c2)c1)c1cccc(OC(F)(F)F)c1)C(F)(F)F (centres unmarked) [compound 96]
19,50,CCCCOc1ccc(CN(CC(O)C(F)(F)F)c2cccc(OC(F)(F)F)c2)cc1 (centres unmarked) [compound 120]
20,100,OC(CN(Cc1ccc(-c2ccccc2)cc1)c1ccc(C(F)(F)F)cc1)C(F)(F)F (centres unmarked) [compound 144]
21,> 100,CCCCOC(=O)c1ccc(N(Cc2cccc(OC(F)(F)F)c2)CC(O)C(F)(F)F)cc1 (centres unmarked) [compound 164]
22,32,OC(CN(Cc1ccccc1)c1cccc(Oc2ccccc2)c1)C(F)(F)F (centres unmarked) [compound 217]
23,> 100,COC(=O)c1cccc(CN(CC(O)C(F)(F)F)c2cccc(OC(F)(F)F)c2)c1 (centres unmarked) [compound 325]
24,100,OC(CN(Cc1ccc(-c2ccccc2)cc1)c1cccc(OC(F)(F)F)c1)C(F)(F)F (centres unmarked) [compound 333]
25,> 100,COc1ccccc1CC(=O)N(CC(O)C(F)(F)F)c1cccc(OC(F)(F)F)c1 (centres unmarked) [compound 339]
26,100,COc1ccc(OC)c(C(=O)CN(CC(O)C(F)(F)F)c2cccc(OC(F)(F)F)c2)c1 (centres unmarked) [compound 340]
27,100,O=C(c1c(F)c(F)c(F)c(F)c1F)N(CC(O)C(F)(F)F)c1cccc(OC(F)(F)F)c1 (centres unmarked) [compound 343]

row,IC50 [µM],SMILES
1,50,COc1cc(CN(CC(O)C(F)(F)F)c2cccc(OC(F)(F)F)c2)cc(OC)c1 (centres unmarked) [compound 350]
2,50,O=C(C=Cc1ccccc1)N(CC(O)C(F)(F)F)c1cccc(OC(F)(F)F)c1 (centres unmarked) [compound 351]
3,0.19,OC(CN(Cc1cccc(OC(F)(F)C(F)F)c1)c1cccc(OCc2cccc(SC(F)(F)F)c2)c1)C(F)(F)F (centres unmarked) [compound 410]
4,0.25,OC(CN(Cc1cccc(OC(F)(F)C(F)F)c1)c1cccc(OCc2cc(F)cc(C(F)(F)F)c2)c1)C(F)(F)F (centres unmarked) [compound 411]
5,2.1,CC(C)(C)c1ccc(COc2cccc(N(Cc3cccc(OC(F)(F)C(F)F)c3)CC(O)C(F)(F)F)c2)cc1 (centres unmarked) [compound 418]
6,1.7,OC(CN(Cc1cccc(OC(F)(F)C(F)F)c1)c1cccc(OCc2ccccn2)c1)C(F)(F)F (centres unmarked) [compound 432]
7,4.3,OC(CN(Cc1cccc(OC(F)(F)C(F)F)c1)c1cccc(Oc2nccs2)c1)C(F)(F)F (centres unmarked) [compound 448]
8,50,O=C(c1cccc(N(Cc2cccc(OC(F)(F)C(F)F)c2)CC(O)C(F)(F)F)c1)N1CCOCC1 (centres unmarked) [compound 471]
9,> 50,OC(CN(Cc1cccc(OC(F)(F)C(F)F)c1)c1cccc(OCCN2CCCC2)c1)C(F)(F)F (centres unmarked) [compound 498]
10,14,OCCCOc1cccc(N(Cc2cccc(OC(F)(F)C(F)F)c2)CC(O)C(F)(F)F)c1 (centres unmarked) [compound 504]
11,0.97,CC(C)(C)COc1cccc(N(Cc2cccc(OC(F)(F)C(F)F)c2)CC(O)C(F)(F)F)c1 (centres unmarked) [compound 506]
12,0.42,OC(CN(Cc1cccc(OC(F)(F)C(F)F)c1)c1cccc(OC2CCCC2)c1)C(F)(F)F (centres unmarked) [compound 509]
13,1.8,OC(CN(Cc1cccc(OC(F)(F)C(F)F)c1)c1cccc(Cc2ccccc2)c1)C(F)(F)F (centres unmarked) [compound 515]
14,2.5,OC(CN(Cc1cccc(OC(F)(F)C(F)F)c1)c1cccc(-c2ccccc2)c1)C(F)(F)F (centres unmarked) [compound 564]
15,80,Oc1cccc(CN(CC(O)C(F)(F)F)c2cccc(Oc3ccc(F)cc3)c2)c1 (centres unmarked) [compound 635]
16,0.39,OC(CN(Cc1cccc(SC(F)(F)F)c1)c1cccc(Oc2ccc(F)cc2)c1)C(F)(F)F (centres unmarked) [compound 636]
17,4.3,OC(CN(Cc1ccc(C(F)(F)F)cc1)c1cccc(Oc2ccc(F)cc2)c1)C(F)(F)F (centres unmarked) [compound 640]
18,11,OC(CN(Cc1cccc(C(F)(F)F)c1)c1cc(Oc2ccc(F)cc2)cc(C(F)(F)F)c1)C(F)(F)F (centres unmarked) [compound 641]
19,2.1,OC(CN(Cc1cccc(OC(F)(F)F)c1)c1cc(Oc2ccc(F)cc2)cc(C(F)(F)F)c1)C(F)(F)F (centres unmarked) [compound 643]
20,0.77,CCOc1cccc(CN(CC(O)C(F)(F)F)c2cccc(Oc3ccc(F)cc3)c2)c1 (centres unmarked) [compound 646]
21,0.83,CCCOc1cccc(CN(CC(O)C(F)(F)F)c2cccc(Oc3ccc(F)cc3)c2)c1 (centres unmarked) [compound 648]
22,0.99,OC(CN(Cc1cccc(OCC2CC2)c1)c1cccc(Oc2ccc(F)cc2)c1)C(F)(F)F (centres unmarked) [compound 651]
23,1.5,CC(C)COc1cccc(CN(CC(O)C(F)(F)F)c2cccc(Oc3ccc(F)cc3)c2)c1 (centres unmarked) [compound 652]
24,> 100,OC(CN(Cc1ccccc1C(F)(F)F)c1cccc(F)c1)C(F)(F)F (centres unmarked) [compound 670]
25,> 100,Cc1ccccc1CN(CC(O)C(F)(F)F)c1cccc(F)c1 (centres unmarked) [compound 671]
26,100,Cc1ccc(CN(CC(O)C(F)(F)F)c2ccc(C(F)(F)F)cc2)cc1 (centres unmarked) [compound 672]
27,> 100,OC(CN(Cc1cccc(Oc2cccc(C(F)(F)F)c2)c1)c1cccc(F)c1)C(F)(F)F (centres unmarked) [compound 674]

row,SMILES,IC50 [µM]
1,OC(CN(Cc1cccc(OC(F)(F)C(F)F)c1)c1cccc(Oc2cccc(C(F)(F)F)c2F)c1)C(F)(F)F (centres unmarked) [compound 227],0.13
2,OC(CN(Cc1cccc(OC(F)(F)C(F)F)c1)c1cccc(Oc2cccc(F)c2)c1)C(F)(F)F (centres unmarked) [compound 240],0.27
3,Cc1cc(Oc2cccc(N(Cc3cccc(OC(F)(F)C(F)F)c3)CC(O)C(F)(F)F)c2)ccc1F (centres unmarked) [compound 242],0.076
4,OC(CN(Cc1cccc(OC(F)(F)C(F)F)c1)c1cccc(Oc2ccc(S)cc2)c1)C(F)(F)F (centres unmarked) [compound 263],> 50
5,O=C(Cc1ccccc1Oc1ccccc1)N(CC(O)C(F)(F)F)c1cccc(OC(F)(F)F)c1 (centres unmarked) [compound 361],> 100
